We go through one compound from patent US3976770A, “Sar'-(OMe)Thr^8 Angiotensin II as an angiotensin II antagonist” (priority 1975, dated 1976).

Data set [1] can be described thus: water solubility and storage of solution. The format is physicochemical. The method, then:
Since the above compound is particularly suitable for injection or infusion, it is particularly valuable that the compound is watersoluble. A suitable dosage unit can be prepared by simply dissolving the above compound in water or physiological saline at a concentration of between 50 and 6000 ng/ml. […] A commonly employed buffer for an injectable solution is Tris(hydroxymethyl) aminomethane but simple salts such as sodium phosphate or acetate can be used. Preferably, the vehicle or medium in which the compound of Formula I is dissolved for an injectable or infusable solution is buffered to a pH of 7 to 7.5.

Data set [2] concerns pressor response of angiotensin II. The data set can be described thus: blocking of the pressor response of angiotensin II in ganglion blocked rats. Type of data set: in vivo. The method, then: For determining its antagonistic properties the compound was infused intravenously in ganglion blocked rats at a dose level of 125, 250, 500, 1250 ng/kg/min. The blocking effect of the compound was calculated from the dose-response curve of angiotensin II before and during the infusion of the analog. General procedure adopted for this assay has been described by Bumpus et al., Circ. Res. 32-33 (Supplement I), I-150 (1973). […] The dose-ratio obtained was 62.50 ± 14.93 at a dose-level of 250 ng/kg/min.

A short description of data set [3]: duration of action after i.m. injection of an oil solution. Type of data set: in vivo. Particulars: single i.m. injection, dissolved in oil. The method, then:
The duration of action of the compound can be prolonged by injecting an oil solution intramuscularly. Oils suitable for this purpose are cod liver oil, sesame oil, refined coconut oil, etc. Antagonistic effects are thus observed for 24 hours or longer after a single i.m. injection of the drug dissolved in such an oil.

For data set [4], the system named is blood pressure. The data set can be described thus: in vivo pressor response on infusion into anesthetized, vagotomized rats. Particulars: scale set artificially at 100 for angiotensin II. The method, then:
In the in vivo assays, rats were anesthetized with sodium amytal and further treated with 0.6 mg atropine and pentolinium tartrate. They were vagotomized and direct recording of the blood pressure was measured through the carotid artery, while the femoral artery was used for infusing the desired dose over a period of 30 minutes in a physiological saline solution.
The dose-response curves of angiotensin II at 0.9 to 54 ng/kg/min. were compared by linear regression analysis with those of the antagonist at doses of 1, 10, 100 and 1000 ng/kg/min. Infusion of the above antagonist into rats thus prepared led to the initial transient pressor response of 0.48 on a scale set artificially at 100 for angiotensin II using the same system.

Data set [5] relates to acute unilateral renal hypertensive rats. The data set can be described thus: blood pressure in acute unilateral renal hypertensive rats. The format is in vivo. As to conditions: intravenous infusion.

Bounds are passed on as bounds.

Consider `CC[C@H](C)[C@H](NC(=O)[C@H](Cc1ccc(O)cc1)NC(=O)[C@@H](NC(=O)[C@H](CCCNC(=N)N)NC(=O)CNC)C(C)C)C(=O)N[C@@H](Cc1cnc[nH]1)C(=O)N1CCC[C@H]1C(=O)N[C@H](C(=O)O)[C@@H](C)OC` [Formula I, Sar'-(OMe)Thr^8 Angiotensin II], for which, in data set [1], the water solubility entry is reported as “watersoluble”. In data set [1] (solution in water or physiological saline, 50-6000 ng/ml, proper conditions), the “storage of solution without deterioration” value was “several weeks without deterioration”. The dose-ratio in data set [2] (dose-level of 250 ng/kg/min, intravenous infusion, ganglion blocked rats) was 62.50 ± 14.93. The “pressor effect of angiotensin II” value in data set [2] (intravenous infusion into rats in a very small amount) was “inhibited”. In data set [2] (intravenous infusion, ganglion blocked rats), the “dose level at which the pressor response of angiotensin II was blocked” value is on record as ≥ 125 ng/kg/min. The “duration of antagonistic effects” value in data set [3] is ≥ 24 h. For the same compound, the “initial transient pressor response” value in data set [4] amounted to 0.48. Besides, the blood pressure entry in data set [5] was “capable of reducing blood pressure”.
